Reference: patent publication US20230114811A1, “GLYCOSYLTRANSFERASES, POLYNUCLEOTIDES ENCODING THESE AND METHODS OF USE” (THE NEW ZEALAND INSTITUTE FOR PLANT AND FOOD RESEARCH …, priority 2020, published 2023)
Where “and” joins values, the source holds several entries; their conditions need not be identical. Equal values may be shown once.

B1: PGT2 (Malus toringoides) (protein)
chain: MEATAIVLYPSPLIGHLVSMVELGKLILTRHPSLCIHILITTPPYRANDTDSYITSVSAANPSLIFHHLPTISLPPSLASSRNHEILAFELAPLYNPNVHQALVSISHNFSIKAFVMDFFCYVGLPVATELNIPSYFFFTSSANTLASSLYLPTLHNIIDKSLKDLNILLNIPGVPPMPSSDMPQPTLDRNQKVYEHVQGSSKQFPKSAGIIVNTFESLEPRALRAIWDGLCLPENVPTPPVYPIGPLIVSHGGGGRGAECLKWLDSQPSGSVVFLCFGSLGLFSKEQLKEIAIGLENSGHRFLWVVRNPPAQNQIGLDIKESDPELKSLLPDGFLDRTKDRGLVVKSWAPQAAVLNHNSVGGFVSHCGWNSVLESVCAGVPIVAWPLYAEQRFNRVVLVKEIKIAMPMNESEDGFVRAAEVEKRITELMDSEEGASIRKRTKDLQNNAHAALGETGSSGVALTKLLEFWGKTC

How the values were obtained:
[1] = system: recombinant PGT2 cloned from M. toringoides; test: Substrate specificity of recombinant PGT2, UDP-glucoside as sugar donor, products determined by LC-MS/MS; format: biochemical; conditions: amount of product formed relative to conversion of phloretin to trilobatin set at 100%
Procedure: The products of each reaction were determined by LC-MS/MS. […] Quercetin-3-O-glucoside was detected as a reaction product using quercetin (FIG. 8A-F) with a lower conversion rate of 9.1% (Table 7).

[2] = Jia et al., 2008; cited from earlier work
[3] = Isosweetness comparison test between trilobatin and sucrose (sensory panel); format: in vivo; conditions: n=5 participants
Procedure: Five participants with high acuity for trilobatin in the triangle test were selected to perform the isosweetness comparison test between trilobatin and sucrose. Each participant was given one trilobatin solution and eight sucrose solutions at different concentrations to taste. Solutions were prepared as described above for the apple leaf teas. The trilobatin solutions were presented at 12.3, 18.5, 27.8 and 41.7 mg per 100 ml, while the sucrose solutions were presented at 296.3, 444.4, 592.6, 666.7, 888.9, 1000, 1333.3 and 2000 mg per 100 ml.

[4] = substrate: O=C(CCc1ccc(O)cc1)c1c(O)cc(O)cc1O; test: Km/Vmax determination for recombinant PGT2 (glycosyltransferase activity assay, HPLC); format: biochemical, M. toringoides; conditions: other: phloretin 4-500 μM, fixed UDP-glucose 500 μM, pH 9.0, 0.1 M Tris-HCl, 40° C., 10 min

Molecule | Conversion (%) [1] | also measured
O=C(CCc1ccc(O)cc1)c1c(O)cc(O)cc1O [phloretin, 3-(4-hydroxyphenyl)-1-(2,4,6-trihydroxyphenyl)propan-1-one] | 100.0 ± 6.1% | 
COc1ccc([C@@H]2CC(=O)c3c(O)cc(O[C@@H]4O[C@H](CO)[C@@H](O)[C@H](O)[C@H]4O[C@@H]4O[C@@H](C)[C@H](O)[C@@H](O)[C@H]4O)cc3O2)cc1O [neohesperidin] | 0% | 
O=C(CCc1ccc(O)c(O)c1)c1c(O)cc(O[C@@H]2O[C@H](CO)[C@@H](O)[C@H](O)[C@H]2O)cc1O [sieboldin, 3-hydroxyphloretin-4′-O-glucoside] | 0% | 
O=C(/C=C/c1ccc(O)c(O)c1)O[C@@H]1C[C@](O)(C(=O)O)C[C@@H](O)[C@H]1O [chlorogenic acid] | 0% | 
O=C(O)/C=C/c1ccc(O)c(O)c1 [caffeic acid] | 0% | 
O=C(O)/C=C/c1ccc(O)cc1 [4-coumaric acid] | 0% | 
O=C(CCc1ccc(O)c(O)c1)c1c(O)cc(O)cc1O [3-OH phloretin] | 58.7 ± 2.3% | 
O=C(CCc1ccc(O)cc1)c1c(O)cc(O[C@@H]2O[C@H](CO)[C@@H](O)[C@H](O)[C@H]2O)cc1O [trilobatin, 1-[2,6-dihydroxy-4-[(2S,3R,4S,5S,6R)-3,4,5-trihydroxy-6-(hydroxymethyl)oxan-2-yl]oxyphenyl]-3-(4-hydroxyphenyl)propan-1-one] | 0% | sweeter than sucrose (reported) [2]: ~100 ×; sweetness detection threshold [2]: 3 to 200 mg/L; Isosweetness (trilobatin vs sucrose) ([3]; R^2=0.98, mean±SE): 35.2+1.66; sweeter than sucrose ([3]; trilobatin purified from leaves of crabapple hybrid ‘Adams’): ~35 fold
O=c1c(O)c(-c2ccc(O)c(O)c2)oc2cc(O)cc(O)c12 [quercetin] | 9.1% and 9.1 ± 0.1% | 
O=C1C[C@@H](c2ccc(O)cc2)Oc2cc(O)cc(O)c21 [naringenin] | 0% | 
B1 |  | Km [4]: 18.0 ± 6.7 µM; Vmax [4]: 1.85 ± 0.17 nmol/min
